Values quoted from earlier work, collected in patent US20030220416A1, “Curable compositions with antimicrobial properties” (priority 1998, published 2003).
Like-named read-outs stand apart in the source and are kept apart here.

Tests used:
bacteria = settings: MDPB incorporated in experimental composites
S. mutans = settings: MDPB incorporated in experimental composites
[1] = most of the compositions tested

SMILES | zone of inhibition by the disk diffusion method (bacteria) | attachment of S. mutans to surfaces of the restorative material (S. mutans) | water solubility (distilled water at 20° C.) [ppm] | water solubility (distilled water at 50° C.) [ppm] | release of the triclosan into the surrounding medium [1] [micrograms/ml]
C=C(C)C(=O)OCCCCCCCCCCCC[n+]1ccccc1.[Br-] [MDPB, methacryloyloxydodecylpyridinium bromide] | no zone of inhibition was evident | reduced | – | – | –
Oc1cc(Cl)ccc1Oc1ccc(Cl)cc1Cl [Triclosan, 2,4,4′-trichloro-2′hydroxydiphenyl ether] | – | – | 20 | 20 | 0.02
